Columns and labels:
PARN1-430 = biological target: T1, PARN1-430 (Homo sapiens, UniProt O95453); assay: Inhibition fluorescence assay (FAM-RNA / BHQ quencher deadenylase assay); assay type: biochemical
T1 construct: expression of the C-terminal truncated protein (1-430 aa of PARN) was soluble; His tag (from the pCold I vector); made in house; host or cells: E. coli Rosetta 2 DE
T1 sequence (O95453 1-430): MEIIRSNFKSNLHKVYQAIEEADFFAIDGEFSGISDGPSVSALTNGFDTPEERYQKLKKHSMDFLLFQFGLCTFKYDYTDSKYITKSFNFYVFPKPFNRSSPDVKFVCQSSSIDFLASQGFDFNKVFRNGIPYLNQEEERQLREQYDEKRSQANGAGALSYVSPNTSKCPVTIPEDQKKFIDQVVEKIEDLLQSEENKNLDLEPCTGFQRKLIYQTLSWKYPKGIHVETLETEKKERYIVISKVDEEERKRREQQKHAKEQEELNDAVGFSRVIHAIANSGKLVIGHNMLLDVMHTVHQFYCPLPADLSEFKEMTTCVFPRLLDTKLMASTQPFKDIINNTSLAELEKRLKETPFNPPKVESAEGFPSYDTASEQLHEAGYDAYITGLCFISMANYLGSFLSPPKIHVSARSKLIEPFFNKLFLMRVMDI
Method: To easily screen compounds for inhibition of PARN activity, we developed an assay in which fluorescence was used as the readout for monitoring PARN1-430’s activity (Fig. 3a). This assay was modeled on a similar assay developed for Caf1/CNOT7 deadenylase. In this assay, PARN1-430 was incubated with a 5′-fluorescently labeled oligoadenylated RNA. In the absence of deadenylation, this substrate RNA can effectively hybridize to a complementary DNA oligonucleotide with a quencher on its 3′ end leading to a loss of fluorescence (Fig. 3a). When the RNA substrate is deadenylated, the quenching oligonucleotide is no longer able to stably hybridize leading to an increase in fluorescence in the reaction.
Figure 3 Developing a fluorescence assay for PARN inhibition. (a) Cartoon depicting the inhibition fluorescence assay. Schematic diagram of the fluorescence-based deadenylase assay. The assay is based on a 5′ FAM-labelled RNA oligonucleotide substrate. After incubation of the substrate in the presence of PARN1-430, the reaction is stopped and a 3′ BHQ-labelled DNA oligonucleotide probe complementary to the RNA substrate is added. The fluorescence of intact substrate is quenched upon probe hybridization because of the proximity of the BHQ […]. In contrast, the BHQ-labelled probe cannot hybridize to the FAM-labelled reaction product allowing detection of FAM fluorescence. […] 2-way ANOVA, multiple comparisons test, average ± SD, n = 3 replicates. *P < 0.05, **P < 0.005, ***P < 0.001, ****P < 0.0001, n.s. was not indicated. […] Dotted-line represents RNA and RNA + Quencher data. One-way ANOVA, multiple comparisons test, average ± SD, n ≥ 3 replicates. *P < 0.05, **P < 0.005, ***P < 0.001, ****P < 0.0001, n.s. was not indicated. (d) PARN1-430 and PARNmut enzymatic activity measured at different time points. […] Dotted-line represents RNA and RNA + Quencher data. 2-way ANOVA, multiple comparisons test, average ± SD, n = 3 replicates. *P < 0.05, **P < 0.005, ***P < 0.001, ****P < 0.0001, n.s. was not indicated.
Quenched reaction was incubated at room temperature for 10–60 min and fluorescence was measured using Fluorescein wavelength measurement.

Hela cells = assay: Cell death assay (cell counting, with or without doxorubicin); assay type: cell-based, human
Method: Previous work has shown that PARN inhibition leads to cell death in combination with DNA damaging agent, which has been interpreted to occur through the induction of p53[11].
Cell counting were done 2 days post-treatment. For doxorubicin (EMD Millipore, 504042) treatment, doxorubicin (1 μM) was added to cells. Cells were collected and counted at 0 h and 24 h after treatment.

[1] = biological target: GCK (germinal center kinase); conditions: cited from earlier work
[2] = test system: PARN activity in Hela cells; assay: miR-21-5p levels in Hela cells by northern blotting (PARN inhibition in cells); assay type: cell-based, human; conditions: 2 days
Method: 48 h after transfection/drug treatment, cells were collected for either RNA or protein analysis.
Total RNA was extracted from cell lysates using TriZol as per manufacturer’s protocol and DNAse treated. After quantification on Nanodrop, total RNA was separated on an acrylamide 7 M Urea gel. RNA was transferred to a nylon membrane (Nytran SPC, GE Healthcare) using semiwet transfer. After UV/EDC crosslinking, the blot was pre-hybridized and hybridized in PerfectHyb Plus Hybridization Buffer (Sigma Aldrich) at 42 °C. Northern probes have been previously described[11],[48]. After hybridization and washing in 2 × SSC 0.1% SDS wash buffer, blots were exposed to a cassette and imaged on a Typhoon FLA 9500 Phosphoimager. Band intensities were quantified using ImageJ and normalized to the U1 levels under each condition.

With `Cc1ccc(Nc2ncc3c(n2)N(C)C(=O)N(c2cc(NC(=O)c4cccc(C(F)(F)F)c4)ccc2C)C3)cn1` [GNF-7] the IC50 (PARN1-430; GNF-7 on PARN1-430, 10 min pre-treatment, non-linear fit) was 35 ± 15 µM, the “inhibitory effect on PARN1-430, fluorescence assay” value (PARN1-430; among 15 docking compounds tested) was “strongest inhibitory effect” and the “PARN inhibitor in vitro” value (PARN1-430; computational docking compounds, fluorescence assay and gels, PARN1-430 pretreated with drug 10 min) was “Yes”. The “sensitivity of cells to doxorubicin (cell death)” value (Hela cells; Hela cells treated 2 days, then doxorubicin 1 μM for 24 h) was “increase the sensitivity”, the “cell growth compared to DMSO treatment” value (Hela cells; Hela cells, 25 μM, 2 days) was “growth defects” and the IC50 [1] was 0.008 µM. The “PARN inhibitor in cells” value ([2]; 50 μM) was “Yes” and the “miR-21-5p levels compared to the controls” value ([2]; 50 µM, northern blotting, DMSO control) was ~ 35%.
